Tests used:
Type in all cases: cell-based, human
MNC [1] = assay: Cytokine production by MNC after incubation (Luminex immunobead multiplex assay)
Source text: (§1) Peripheral blood mononuclear cells (PBMC, i.e., mononuclear cells (MNC)). This refers to mononuclear blood cells which have a round cell nucleus. These are, for example, lymphocytes and monocytes. Said cells play an important role in the immune system in controlling infections. PBMC or MNC are frequently employed in diagnostics as an indicator for infections which are present, as a factor for prognosing the course of an HIV infection and in clinical research. From the blood and sera collection of the tumor tissue bank and the tumor cells of an individual tumor patient that were likewise stored in said bank, they were, after passing through a specific thawing/revitalization procedure, examined for their protein and gene expression, apoptosis behavior and their released messenger substances (cytokine profiles) under the influence of the colostrum preparation Lactobin® N, vitamin D3 and also the combination in a specifically selected repertoire of methods.
(§2) After collection, EDTA tubes were left to stand at room temperature (RT) for 60 min. Thereafter, serum was removed, divided into portions (1 ml/tube) and stored in −80° C. The blood was centrifuged at 311 g for 10 min. Thereafter, 1 part whole blood+5 parts lysis buffer were mixed, left to stand at RT for 15 min and then centrifuged at 311 g for 10 min. The supernatant was discarded and the pellet was washed with RPMI 1640 medium (repeated 3×). The cells were then counted and frozen at −170° C. in nitrogen at 5×10^6/ml (freezing medium: RPMI 1640 medium containing 5% DMSO, dimethyl sulfoxide=cryopreservation). In addition, the immune status was measured from one tube (FACS analysis, see below).
The cryotube to be thawed was removed from the nitrogen and immediately transferred to a 37° C. water bath. Once the cells had detached from the inner wall of the cryotube (1-1.5 min), they were transferred to a sterile 50 ml Falcon tube containing 40 ml of cold medium. After a 5-minute centrifugation at 400 g, the medium was removed, the cell pellet was resuspended in 6 ml of warmed-up medium and the cells were counted. […]
Interleukin (IL)-12 and proinflammatory factors such as […], IL-6, IFN-γ, TNF-α and anti-inflammatory factors such as IL-10 and IL-13 in the serum samples were measured in duplicate using an immunobead-based multiplex assay. The assays were carried out on a Bio-Plex system (Biosource).
The microspheres coated with mixtures of corresponding capture antibodies and the labeled detection antibodies were purchased from Biosource (Camarillo, […]). The reagents had already been tested and qualified by the manufacturer to rule out a cross-reactivity of the antibody-coated microspheres.
The Luminex measurements were carried out in order to determine further expressed MNC cytokines. 25 μl of antibody-coated microspheres were added to 96-well plates [mixture of the cytokines GM-CSF, IFN-γ, IL-1β, IL-2, IL-4, IL-5, IL-6, IL-8, IL-10 and TNF-α; ready-prepared kit, from Biosource International, California, USA]. After washing had been carried out twice, 50 μl of incubation buffer, 50 μl of ready-prepared sample dilution and 50 μl of sample were pipetted into each well. The plates were incubated in the dark on a shaker for 2 hours at room temperature and again washed twice. Thereafter, 100 μl of the biotinylated detection antibody were added to each well, incubated in the dark on a shaker for a further hour at room temperature, and again washed twice. 100 μl of SAV-RPE (R-phycoerythrin fluorescent dye, from Biosource International) were pipetted into each well, the plates were again shaken in the dark for 30 min at room temperature and washed three times. Each assay preparation was adjusted with 100 μl of wash buffer per well as the final volume and the plates were measured in the Luminex reader (Luminex 100, from Luminex Applied Systems, Sheffield, UK). […]

[2] = system: monocytes from the blood of patients with CRC; assay: Gene expression in MNC/monocytes from blood of CRC patients (RT-qPCR); conditions: monocytes from blood of CRC patients UICC I to IV, 12-hour incubation, synergism in UICC I-III, FIG. 5
Description: as §2
RNA was extracted from MNCs and homogenized tumor tissue using the RNA Extraction Kit (Qiagen, Hilden, Germany), washed in DEPC 75% ethanol solution and then stored at −70° C. until it was processed further. The amount of RNA was determined by measuring absorption at 260 nm. The 260:280 ratio was determined within the 1.8-2.0 range; it was thus possible to prevent a contamination of the RNA by proteins. […]
The ‘real-time reverse transcription polymerase chain reaction’ method (real-time RT-PCR for short) is used for determining the expression of various genes. Said method allows the quantification of the expression of a gene in question in relation to the control genes. […]

MNC [3] = assay: IGF-1 protein determination (ELISA) in MNC incubations
Source text: as §1
The examinations were carried out in order to detect the cytokine insulin-like growth factor 1 (IGF-1) present in the samples. To this end, use was made of enzyme-linked immunosorbent assay (ELISA) sets (from Biosource International, California, USA) in accordance with the protocol instructions from the manufacturer. 50 μl of standard sample, control and the samples were pipetted per well into 96-well plates coated with anti-IGF-1. Thereafter, 50 μl of biotin conjugate (second antibody against IGF-1) were added. Subsequently, the plates were incubated at room temperature for 90 min, washed four times, and 100 μl of streptavidin-HRP working solution were pipetted into the wells and the plate was incubated at room temperature for 45 min. Thereafter, the plates were again washed four times, 100 μl of stabilized chromogen were added and incubated at room temperature for 30 min. Lastly, 100 μl of stop solution were pipetted. The results were read off on the ELISA reader at 450 nm (Dynatech Laboratories, Sullyfield, USA).
To prepare a preparation according to the invention, the above-described colostrum powder (preferably Lactobin N) was admixed with an appropriate amount of the vitamin D3-containing powder, achieving the inventive concentration of vitamin D3. A mixing ratio used according to the invention was 0.2 mg of the vitamin D3-containing powder per gram of colostrum powder (0.2 mg/g). This yielded 0.5 μg of vitamin D3/g of ready-made preparation for the samples. A recommended daily dose is 10 g of ready-made preparation, i.e., 5 μg of vitamin D3. […] Similarly, only the vitamin D3 preparation was used when the samples were treated only with vitamin D3 (e.g., “Vit. D3” in Table 1).

[4] = MNC of CRC patients UICC I (n = 6)
[5] = MNC of CRC patients UICC II (n = 6)
[6] = MNC of CRC patients UICC III (n = 6)
[7] = MNC of CRC patients UICC IV (n = 6)

With `C=C1CC[C@H](O)C/C1=C/C=C1\CCC[C@]2(C)[C@@H]([C@H](C)CCCC(C)C)CC[C@@H]12` [Vit D3, cholecalciferol] the IFN-γ (MNC [1]; [4]) was 58.5 pg/mL, the IL-1β (MNC [1]; [4]) was 42.5 pg/mL and the IL-6 (MNC [1]; [4]) was 98.7 pg/mL. For the same compound, the IL-10 (MNC [1]; [4]) was 18.3 pg/mL, the IL-12 (MNC [1]; [4]) was 74.9 pg/mL and the IL-13 (MNC [1]; [4]) was 30.1 pg/mL. The TNF-α (MNC [1]; [4]) was 83.6 pg/mL, the IFN-γ (MNC [1]; [5]) was 77.3 pg/mL and the IL-1β (MNC [1]; [5]) was 34.8 pg/mL. For the same compound, the IL-6 (MNC [1]; [5]) was 102.8 pg/mL, the IL-10 (MNC [1]; [5]) was 18.1 pg/mL and the IL-12 (MNC [1]; [5]) was 80.1 pg/mL. For the same compound, the IL-13 (MNC [1]; [5]) was 27.9 pg/mL, the TNF-α (MNC [1]; [5]) was 169.1 pg/mL and the IFN-γ (MNC [1]; [6]) was 215.9 pg/mL. The IL-1β (MNC [1]; [6]) was 169.4 pg/mL, the IL-6 (MNC [1]; [6]) was 91.7 pg/mL and the IL-10 (MNC [1]; [6]) was 17.9 pg/mL. It also gave an IL-12 (MNC [1]; [6]) of 214.7 pg/mL, an IL-13 (MNC [1]; [6]) of 26.1 pg/mL and a TNF-α (MNC [1]; [6]) of 331.5 pg/mL. The IFN-γ (MNC [1]; [7]) was 292.5 pg/mL, the IL-1β (MNC [1]; [7]) was 369.9 pg/mL and the IL-6 (MNC [1]; [7]) was 213.1 pg/mL. It also gave an IL-10 (MNC [1]; [7]) of 7.9 pg/mL, an IL-12 (MNC [1]; [7]) of 499.9 pg/mL and an IL-13 (MNC [1]; [7]) of 9.1 pg/mL. The TNF-α (MNC [1]; [7]) was 413.1 pg/mL, the IFN-γ (MNC [1]; MNC of Control (n = 6)) was 12.8 pg/mL and the IL-1β (MNC [1]; MNC of Control (n = 6)) was 4.8 pg/mL. It also gave an IL-6 (MNC [1]; MNC of Control (n = 6)) of 3.3 pg/mL, an IL-10 (MNC [1]; MNC of Control (n = 6)) of 27.9 pg/mL and an IL-12 (MNC [1]; MNC of Control (n = 6)) of 47.7 pg/mL. The IL-13 (MNC [1]; MNC of Control (n = 6)) was 43.6 pg/mL, the TNF-α (MNC [1]; MNC of Control (n = 6)) was 62.6 pg/mL and the “expression of the IGF-1 gene in MNC” value [2] was “drop in the gene expression profile”. For the same compound, the IGF-1 (MNC [3]; [4]) was 148.6 ng/mL, the IGF-1 (MNC [3]; [5]) was 213.4 ng/mL and the IGF-1 (MNC [3]; [6]) was 299.1 ng/mL. The IGF-1 (MNC [3]; [7]) was 896.4 ng/mL and the IGF-1 (MNC [3]; MNC of Control (n = 6)) was 90.3 ng/mL.
